Reference: patent publication US20250092044A1, “Kinase Inhibitors” (Incyte Corporation, priority 2023, published 2025)

Key:
[1] = test system: STAT5 (Tyr694) phosphorylation in SET-2 cells; assay: STAT5 (Tyr694) Phosphorylation Cell Based Assay; details: Homo sapiens, 2 hours, read-out: SET2 IC50
Procedure, shortened: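 SET-2 cells in RPMI with 10% FBS were exposed to compound for 2 h at 37 °C (0.5% DMSO final). After lysis, phospho-STAT5 (Tyr694) was read by HTRF (665/620 ratio) after 24 h antibody incubation at room temperature. IC50 was fitted from percent control activity versus log concentration.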

FaSSIF Solubility Assay = assay type: physicochemical; details: FaSSIF (fasted state simulated intestinal fluid), 25 °C, pH 6.5, fassif, thermodynamic from solid, FaSSIF pH=6.5, 25° C., read-out: Solubility Fassif
Text: The FaSSIF (Fasted State Simulated Intestinal Fluid) solubility assay can predict how an oral drug is likely to be dissolved and potentially absorbed in the upper intestine after drinking a glass of water. FaSSIF solubility assay utilizes biorelevant intestinal media (Biorelevant, Part #FFF01) comprised of physiological surfactants, bile salts, and phospholipids that are present in the gastrointestinal fluids it mimics. FaSSIF (pH=6.5) has the average pH of a fasted intestinal fluid with similar osmolarity. The FaSSIF buffer was prepared by adding 20 mL of phosphate buffer to FaSSIF Powder. The buffer was then added to the dry compound of interest at a concentration of 1 mg/mL and then incubated at 25° C. for 24 hours in a Rototherm Plus (Part #H2024). After incubation, the Eppendorf tubes were centrifuged and run on an Agilent 1260 LC-MS. The LC-MS method is a 5 min gradient method of 2% to 95% acetonitrile with water (0.05% TFA) using a Sunfire C18, 5 um 2.1×50 mm (Part #186002539) column. A dry reference compound of interest was diluted to a known 1 mg/mL concentration in 1:1 of water and acetonitrile. Step-wise serial dilutions were performed and run on an Agilent 1260 LC-MS using the same conditions to make a standard curve. The area under the curve is reported for the compound of interest in FaSSIF buffer and the reference standards. Calculations were performed and the predicted solubility, μg/mL, was reported for compounds of the examples.

[2] = In Vivo Pharmacokinetics (rat); design: species or system Sprague Dawley rats; details: male, Sprague Dawley, plasma, PO 3.0 mg/kg
Method: Test compounds were administered to male Sprague Dawley rats or male and female Cynomolgus monkeys intravenously or via oral gavage. For intravenous (IV) dosing, test compounds were dosed at 1 mg/kg using a formulation of 10% dimethylacetamide (DMAC), 10% propylene glycol (PG) in acidified saline via IV bolus for rat or 10 min IV infusion for monkey. For oral (PO) dosing, test compounds were dosed at 3.0 mg/kg using 5% DMAC in 0.5% methylcellulose in citrate buffer (PH˜2.5). Blood samples were collected at predose and various time points up to 24 hours postdose. All blood samples were collected using EDTA as the anticoagulant and centrifuged to obtain plasma samples. The plasma concentrations of test compounds were determined by LC-MS/MS methods. The measured plasma concentrations were used to calculate PK parameters by standard noncompartmental methods using Phoenix® WinNonlin software program (version 8.0, Pharsight Corporation) or similar software. In rats and monkeys, cassette dosing of test compounds were conducted to obtain preliminary PK parameters. In vivo pharmacokinetic experiments with male beagle dogs may be performed under the conditions described above.

TRKA [3] = assay: TRKA Enzymatic Assay; assay type: biochemical
Procedure, shortened: (§1)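 Reaction contained 0.58 nM TRKA, 1 mM ATP, 500 nM biotinylated TK substrate and 62.5 nM SEB reagent in HEPES 50 mM pH 7.0 with 10 mM MgCl2, 1 mM DTT and 0.1 mM orthovanadate, 0.5% DMSO, ATP-initiated. After 60 min at room temperature, the TR-FRET 665/620 nm ratio was read. IC50 was fitted from percent control activity versus log concentration, with DMSO and no-ATP wells as controls.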

TRKA [4] = molecular target: TRKA (Homo sapiens (Human), UniProt P04629); assay: TRKA Enzymatic Assay; assay type: biochemical; details: 1 mM ATP
TRKA (Homo sapiens (Human), UniProt P04629), sequence (P04629 33-796, species assumed): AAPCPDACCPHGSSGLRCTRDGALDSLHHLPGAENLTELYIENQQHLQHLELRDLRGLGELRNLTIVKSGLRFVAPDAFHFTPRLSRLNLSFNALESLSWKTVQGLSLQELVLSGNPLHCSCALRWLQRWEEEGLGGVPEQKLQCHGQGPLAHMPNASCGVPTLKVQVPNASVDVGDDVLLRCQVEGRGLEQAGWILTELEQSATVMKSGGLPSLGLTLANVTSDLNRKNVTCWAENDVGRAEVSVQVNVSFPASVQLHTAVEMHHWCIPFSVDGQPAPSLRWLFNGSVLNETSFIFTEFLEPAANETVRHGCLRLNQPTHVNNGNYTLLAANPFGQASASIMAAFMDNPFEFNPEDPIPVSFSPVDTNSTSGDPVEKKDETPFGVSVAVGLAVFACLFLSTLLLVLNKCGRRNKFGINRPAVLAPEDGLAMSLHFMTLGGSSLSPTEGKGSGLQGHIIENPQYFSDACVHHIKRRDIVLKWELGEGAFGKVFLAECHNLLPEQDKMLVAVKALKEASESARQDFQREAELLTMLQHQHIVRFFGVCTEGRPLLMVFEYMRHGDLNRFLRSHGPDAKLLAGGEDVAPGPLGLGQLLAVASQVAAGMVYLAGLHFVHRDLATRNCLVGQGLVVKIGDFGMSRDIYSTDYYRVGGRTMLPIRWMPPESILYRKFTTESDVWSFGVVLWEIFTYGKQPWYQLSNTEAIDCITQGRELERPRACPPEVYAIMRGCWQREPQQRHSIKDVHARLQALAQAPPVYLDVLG
Procedure, shortened: as §1

[2H]C([2H])([2H])n1c(=O)n([C@@H]2CC[C@@H](NC(=O)OC)C2)c2c3c(-c4ccc5c(cnn5C(C)C)c4)c(-c4ccc(CN(C)C)cc4)[nH]c3ncc21 [Example 26, Methyl ((1R,3R)-3-(7-(4-((dimethylamino)methyl)phenyl)-8-(1-isopropyl-1H-indazol-5-yl)-3-(methyl-d3)-2-oxo-3,6-dihydroimidazo[4,5-d]pyrrolo[2,3-b]pyridin-1(2H)-yl)cyclopentyl)carbamate]
IC50 [1]: ≤ 300 nM | solubility at 24 h (FaSSIF Solubility Assay): > 500 µg/mL | AUC [2]: ≤ 0.5 µM·h | Selectivity TRKA/JH2 V617F (TRKA [3]): ***** (selectivity of >5000-fold to ≤12500-fold) | IC50 (TRKA [4]): 1250 to 2500 nM
